For assay [1], the target named is hCA IX (Homo sapiens, UniProt Q16790). Put plainly: CA inhibition, stopped-flow CO2 hydration assay.
Description: (§1) An applied photophysics stopped-flow instrument was used for assaying the CA-catalyzed CO2 hydration activity.[37]
(§2) The uncatalyzed rates were determined in the same manner and subtracted from the total observed rates. Stock solutions of the inhibitor (0.1 mM) were prepared in distilled–deionized water, and dilutions up to 0.01 nM were done thereafter with the assay buffer. Inhibitor and enzyme solutions were preincubated together for 15 min at room temperature prior to the assay to allow for the formation of the E–I complex. The inhibition constants were obtained by nonlinear least-squares methods using PRISM 3 and the Cheng–Prusoff equation, as reported earlier, and represent the mean from at least three different determinations. All CA isoforms were recombinant proteins obtained in-house, as reported earlier.[44]−[46]
Assay [2] concerns the target hCA VB (Homo sapiens, UniProt Q9Y2D0). The experiment in a line: CA inhibition, stopped-flow CO2 hydration assay.
Description: as §1, §2
The target of assay [3] is hCA IV (Homo sapiens, UniProt P22748). The experiment in a line: CA inhibition, stopped-flow CO2 hydration assay.
Description: as §1, §2
The target in assay [4] is hCA VA (Homo sapiens, UniProt P35218). Put plainly: CA inhibition, stopped-flow CO2 hydration assay.
hCA VA, sequence (P35218 39-305): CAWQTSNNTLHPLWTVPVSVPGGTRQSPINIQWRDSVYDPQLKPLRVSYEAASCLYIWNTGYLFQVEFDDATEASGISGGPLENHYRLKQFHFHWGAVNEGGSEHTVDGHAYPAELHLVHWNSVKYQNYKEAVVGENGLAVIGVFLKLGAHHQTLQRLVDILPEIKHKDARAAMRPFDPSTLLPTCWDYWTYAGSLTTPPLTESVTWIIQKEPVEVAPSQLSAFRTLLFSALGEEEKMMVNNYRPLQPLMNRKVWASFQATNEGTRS
Description: as §1, §2
The target of assay [5] is hCA II (Homo sapiens, UniProt P00918). Put plainly: CA inhibition, stopped-flow CO2 hydration assay.
Description: as §1, §2
The target in assay [6] is hCA I (Homo sapiens, UniProt P00915). The experiment in a line: CA inhibition, stopped-flow CO2 hydration assay.
hCA I, sequence (P00915 whole entry): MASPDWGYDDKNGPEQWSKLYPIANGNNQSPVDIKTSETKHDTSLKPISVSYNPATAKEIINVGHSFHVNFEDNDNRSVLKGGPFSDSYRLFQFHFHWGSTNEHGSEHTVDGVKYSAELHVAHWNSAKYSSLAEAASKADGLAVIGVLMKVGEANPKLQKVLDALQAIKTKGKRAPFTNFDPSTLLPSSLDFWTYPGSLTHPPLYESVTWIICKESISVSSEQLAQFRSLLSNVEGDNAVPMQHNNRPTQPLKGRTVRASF
Description: as §1, §2
Assay [7] has as its target T1, purified recombinant human DPP IV (Homo sapiens, UniProt P27487).
T1 construct: purchased Cayman Chemicals (Michigan)
Put plainly: In vitro DPP IV activity assay (fluorogenic Gly-Pro-AMC substrate). It counts as biochemical. The protocol:
The DPP IV inhibition activities of the entire sets of compounds were carried out on purified recombinant human DPP IV using conditions previously optimized.[35]
Four independent in vitro experiments were carried out, and each of those was performed in triplicate in a white half-volume 96-well solid plate. […] Afterward, the samples were mixed and 50 μL was transferred to each plate well. Each reaction was started by adding 50 μL of the substrate solution (200 μM H-Gly-Pro-7-amido-4-methylcoumarin (AMC)) to each well and incubated at 37 °C for 30 min. […] The DPP IV enzyme and the substrate solution were provided by Cayman Chemicals (Michigan).

Assay [8] has as its target T2, human cloned α1a-AR (Homo sapiens, UniProt P35348).
T2 construct: expressed in transfected cells
T2 sequence (P35348 1-466): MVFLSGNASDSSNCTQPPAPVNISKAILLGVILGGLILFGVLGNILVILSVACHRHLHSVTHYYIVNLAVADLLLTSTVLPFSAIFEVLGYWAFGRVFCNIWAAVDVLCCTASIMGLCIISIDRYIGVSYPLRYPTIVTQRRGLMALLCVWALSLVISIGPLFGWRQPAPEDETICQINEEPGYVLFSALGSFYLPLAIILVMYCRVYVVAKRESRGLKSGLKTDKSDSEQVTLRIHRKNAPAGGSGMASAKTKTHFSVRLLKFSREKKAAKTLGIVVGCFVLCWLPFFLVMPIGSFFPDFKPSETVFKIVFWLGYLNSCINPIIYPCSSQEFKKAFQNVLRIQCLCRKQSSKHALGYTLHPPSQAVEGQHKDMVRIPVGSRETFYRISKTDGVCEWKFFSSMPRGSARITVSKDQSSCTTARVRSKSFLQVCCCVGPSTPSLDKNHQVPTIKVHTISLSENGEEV
The experiment in a line: α1a-AR binding assay ([3H]prazosin displacement). The conditions noted are these: human cloned α1a-AR expressed in HEK293 cells. From the text: Since WB-4101 is a potent α1 antagonist, this adrenoreceptor subtype was chosen to assess the loss of adrenergic affinity.
Figure S3. […] Curves […]
from single experiments were fitted using the standard four parameter logistic equation and represent the mean ± S.E.M. of 4 observations, 2 experi-ments. X-axis: Log concentrations of competitive test compounds. Y-axis: normalized [3H]prazosin Bound/Total bound.
In the table are reported the affinity constants, expressed as pKi (-log Ki), of compounds 11, 12 and WB-4101 for human cloned α1a-AR expressed in HEK293 cells. The values represent the arithmetic mean ± S.E.M. of 4 observations, 2 experiments.
ND, not determinable; NA, not available.
Note: data generated from binding assays were analyzed using Prism 5.02 (GraphPad Software Inc., San Diego, CA) and were fitted to a parametric function to derive best estimates of the IC50 and slope factor (nH); IC50 values were then converted to binding constant Ki according to Cheng-Prus- […]
The details on the α1a-AR binding assay have been described before2.
(1 picture or pasted object on this page, not shown here)

[9] abbreviates: read-out: Ki CA IX, stopped-flow technique, mean from three assays.
Where [10] appears, read: read-out: Ki CA VB, stopped-flow technique, mean from three assays.
[11] abbreviates: read-out: Ki CA IV, stopped-flow technique, mean from three assays.
Setting [12] is: read-out: Ki CA VA, stopped-flow technique, mean from three assays.
The mark [13] stands for this setting: read-out: Ki CA II, stopped-flow technique, mean from three assays.
The mark [14] stands for this setting: read-out: Ki CA I, stopped-flow technique, mean from three assays.
The mark [15] stands for this setting: mean from three different assays.

The structures appear in SMILES notation. Counter-ions that a name gives are not always drawn. Like-named read-outs stand apart in the source and are kept apart here.

T1 sequence (P27487 whole entry): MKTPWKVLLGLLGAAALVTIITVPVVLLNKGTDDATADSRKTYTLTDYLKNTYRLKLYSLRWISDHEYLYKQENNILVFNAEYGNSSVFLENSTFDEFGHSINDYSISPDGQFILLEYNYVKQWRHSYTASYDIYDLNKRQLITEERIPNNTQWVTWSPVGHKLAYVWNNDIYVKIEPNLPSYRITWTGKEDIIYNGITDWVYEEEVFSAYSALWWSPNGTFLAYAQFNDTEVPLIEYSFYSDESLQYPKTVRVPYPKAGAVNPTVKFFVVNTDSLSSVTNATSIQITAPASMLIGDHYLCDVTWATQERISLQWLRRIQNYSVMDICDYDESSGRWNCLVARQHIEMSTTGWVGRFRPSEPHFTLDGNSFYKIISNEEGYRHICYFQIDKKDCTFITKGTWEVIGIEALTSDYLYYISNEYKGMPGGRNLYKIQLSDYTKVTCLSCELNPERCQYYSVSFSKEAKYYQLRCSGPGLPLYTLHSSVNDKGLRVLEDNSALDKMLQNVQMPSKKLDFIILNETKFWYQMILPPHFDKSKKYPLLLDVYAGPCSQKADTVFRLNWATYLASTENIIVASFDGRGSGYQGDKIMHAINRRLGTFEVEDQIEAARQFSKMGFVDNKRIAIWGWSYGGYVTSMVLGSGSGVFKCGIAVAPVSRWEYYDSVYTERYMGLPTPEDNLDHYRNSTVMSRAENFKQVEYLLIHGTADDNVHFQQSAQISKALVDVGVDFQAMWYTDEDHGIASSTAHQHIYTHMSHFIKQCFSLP
hCA IV, sequence (P22748 19-312): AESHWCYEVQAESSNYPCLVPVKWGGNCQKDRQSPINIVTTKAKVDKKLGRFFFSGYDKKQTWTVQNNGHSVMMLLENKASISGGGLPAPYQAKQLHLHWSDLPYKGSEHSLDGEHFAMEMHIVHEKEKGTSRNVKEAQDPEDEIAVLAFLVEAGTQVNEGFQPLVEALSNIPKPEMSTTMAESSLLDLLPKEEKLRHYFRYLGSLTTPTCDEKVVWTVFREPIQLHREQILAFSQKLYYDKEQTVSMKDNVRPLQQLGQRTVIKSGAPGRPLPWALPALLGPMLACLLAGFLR
hCA VB, sequence (Q9Y2D0 34-317): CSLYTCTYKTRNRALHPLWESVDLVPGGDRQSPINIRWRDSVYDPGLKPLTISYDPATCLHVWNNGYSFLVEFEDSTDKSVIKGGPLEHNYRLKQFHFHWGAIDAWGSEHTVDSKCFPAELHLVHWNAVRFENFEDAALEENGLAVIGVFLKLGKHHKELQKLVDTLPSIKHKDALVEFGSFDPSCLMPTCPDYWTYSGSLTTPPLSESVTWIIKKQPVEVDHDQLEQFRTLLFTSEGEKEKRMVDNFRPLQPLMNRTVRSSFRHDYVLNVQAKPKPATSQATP

Take `NS(=O)(=O)c1ccc(OCCNCC2COc3ccccc3O2)cc1` (stereo not shown) [Compound 1, [((2-(4-Sulfonamidephenoxy)ethyl)amino)-methyl]-1,4-benzodioxane Hydrochloride]: the inhibition constant Ki in assay [1] (setting [9]) was found to be 0.0203 µM.
Consider `CNS(=O)(=O)c1ccc(OCCNCC2COc3ccccc3O2)cc1` (stereo not shown) [Compound 2, [((2-(4-Methylsulfonamidephenoxy)ethyl)amino)-methyl]-1,4-benzodioxane Hydrochloride], for which the inhibitory constant (Ki) in assay [2] (setting [10]), in assay [3] (setting [11]), in assay [1] (setting [9]), in assay [4] (setting [12]), in assay [5] (setting [13]) and in assay [6] (setting [14]) was greater than 10 µM each time.
On to `CCNS(=O)(=O)c1ccc(OCCNCC2COc3ccccc3O2)cc1` (stereo not shown) [Compound 3, [((2-(4-Ethylsulfonamidephenoxy)ethyl)amino)-methyl]-1,4-benzodioxane Hydrochloride], for which the Ki in assay [2] (setting [10]), in assay [3] (setting [11]), in assay [1] (setting [9]), in assay [4] (setting [12]), in assay [5] (setting [13]) and in assay [6] (setting [14]) was greater than 10 µM throughout.
As for `CN(C)S(=O)(=O)c1ccc(OCCNCC2COc3ccccc3O2)cc1` (stereo not shown) [Compound 4, [((2-(4-Dimethylsulfonamidephenoxy)ethyl)amino)-methyl]-1,4-benzodioxane Hydrochloride], the Ki in assay [2] (setting [10]), in assay [3] (setting [11]), in assay [1] (setting [9]), in assay [4] (setting [12]), in assay [5] (setting [13]) and in assay [6] (setting [14]) was greater than 10 µM throughout.
On to `CC(C)NS(=O)(=O)c1ccc(OCCNCC2COc3ccccc3O2)cc1` (stereo not shown) [Compound 5, [((2-(4-Isopropylsulfonamidephenoxy)ethyl)amino)-methyl]-1,4-benzodioxane Hydrochloride], for which the Ki in assay [2], in assay [3], in assay [1], in assay [4], in assay [5] and in assay [6] was greater than 10 µM throughout.
As for `CS(=O)(=O)Nc1ccc(OCCNCC2COc3ccccc3O2)cc1` (stereo not shown) [Compound 6, [((2-(4-Methylsulfonylamidephenoxy)ethyl)amino)-methyl]-1,4-benzodioxane Hydrochloride], the Ki in assay [2] (setting [10]), in assay [3] (setting [11]), in assay [1] (setting [9]), in assay [4] (setting [12]), in assay [5] (setting [13]) and in assay [6] (setting [14]) was greater than 10 µM in each case.
As for `CCS(=O)(=O)Nc1ccc(OCCNCC2COc3ccccc3O2)cc1` (stereo not shown) [Compound 7, [((2-(4-Ethylsulfonylamidephenoxy)ethyl)amino)-methyl]-1,4-benzodioxane Hydrochloride], the Ki in assay [2] (setting [10]), in assay [3] (setting [11]), in assay [1] (setting [9]), in assay [4] (setting [12]), in assay [5] (setting [13]) and in assay [6] (setting [14]) was greater than 10 µM throughout.
Regarding `CC(C)CS(=O)(=O)Nc1ccc(OCCNCC2COc3ccccc3O2)cc1` (stereo not shown) [Compound 8, [((2-(4-Isobutylsulfanilaminophenoxy)ethyl)amino)-methyl]-1,4-benzodioxane Hydrochloride], the Ki in assay [2] (setting [10]), in assay [3] (setting [11]), in assay [1] (setting [9]), in assay [4] (setting [12]), in assay [5] (setting [13]) and in assay [6] (setting [14]) was greater than 10 µM each time.
Consider `[N-]=[N+]=NC(CCOc1ccc(S(N)(=O)=O)cc1)C1COc2ccccc2O1` (stereo not shown) [Compound 9, 4-(3-Azido-3-(1,4-benzodioxan)propoxy)benzenesulfonamide], for which the IC50 in assay [7] (setting [15]) is 669 ± 23.5 µM. Besides, the Ki in assay [1] (setting [9]) worked out at 0.328 µM.
Consider `COc1cc(S(N)(=O)=O)ccc1OCCC(N=[N+]=[N-])C1COc2ccccc2O1` (stereo not shown) [Compound 10, 3-Methoxy-4-(3-azido-3-(1,4-benzodioxan)propoxy)benzenesulfonamide], for which the Ki in assay [1] (setting [9]) was found to be 0.111 µM.
As for `COc1cc(S(N)(=O)=O)cc(OC)c1OCCC(N=[N+]=[N-])C1COc2ccccc2O1` (stereo not shown) [Compound 11, 3,5-Dimethoxy-4-(3-azido-3-(1,4-benzodioxan)propoxy)benzenesulfonamide], the IC50 in assay [7] (setting [15]) turned out to be 0.0332 ± 0.0058 µM. In assay [8], the “binding affinity toward α1a-AR (in words)” value is listed as “absence of the binding affinity”. Besides, in assay [8] (mean ± S.E.M.), the “pKi α1a-AR” value is greater than 4. Besides, in assay [1] (setting [9]), the Ki was 0.745 µM.
As to `COc1cc(S(N)(=O)=O)ccc1OCCC(N)C1COc2ccccc2O1` (stereo not shown) [Compound 13, 3-Methoxy-4-(3-amino-3-(1,4-benzodioxan)propoxy)benzenesulfonamide], in assay [7] (setting [15]), the IC50 amounted to 57.4 ± 3.2 µM. The Ki in assay [1] (setting [9]) was 0.0311 µM.
The corresponding values for `COc1cc(S(N)(=O)=O)cc(OC)c1OCCC(N)C1COc2ccccc2O1` (stereo not shown) [Compound 14, 3,5-Dimethoxy-4-(3-amino-3-(1,4-benzodioxan)propoxy)benzenesulfonamide] are 0.0283 ± 0.0035 µM and 0.955 µM.
On to `N[C@@H](CC(=O)N1CCn2c(nnc2C(F)(F)F)C1)Cc1cc(F)c(F)cc1F` [Sitagliptin, reference compound], for which the inhibition constant (Ki) in assay [2] (setting [10]), in assay [3] (setting [11]), in assay [1] (setting [9]), in assay [4] (setting [12]), in assay [5] (setting [13]) and in assay [6] (setting [14]) was greater than 10 µM throughout.
As to `COc1cccc(OC)c1OCCNCC1COc2ccccc2O1` (stereo not shown) [WB-4101, 2-[(2,6-dimethoxyphenoxyethyl)aminomethyl]-1,4-benzodioxane, reference compound], in assay [7], the IC50 is greater than 700 µM. For the same compound, the inhibition constant Ki in assay [2] (setting [10]), in assay [3] (setting [11]), in assay [1] (setting [9]), in assay [4] (setting [12]), in assay [5] (setting [13]) and in assay [6] (setting [14]) was greater than 10 µM throughout.

Broadly, the Ki is the equilibrium dissociation constant of an inhibitor or competing ligand from its target. One may read the IC50 as the concentration needed to halve the response being measured.

For the origin of these results see article PMC9937538 (Journal of Medicinal Chemistry, 2022).
